According to PubChem BioAssay (NCI):
“And” between values parts separate entries of the source, which are not always exact repeats. Equal values may be shown once.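 Cultured in 96-well plates, cells were exposed to test compound for 48 hours across five concentrations. At the GI50, growth is halved. TGI marks complete inhibition of growth.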

How the values were obtained:
Test in all cases: DTP human tumour cell line panel, 48 h
K-562 leukemia = tested on: K-562 leukemia
SF-539 CNS = tested on: SF-539 CNS
SK-MEL-28 melanoma = tested on: SK-MEL-28 melanoma
SF-295 CNS = tested on: SF-295 CNS
HCT-116 colon = tested on: HCT-116 colon
SF-268 CNS = tested on: SF-268 CNS
A498 renal = tested on: A498 renal
ACHN renal = tested on: ACHN renal
A549 NSCLC = tested on: A549 NSCLC

SMILES: CN(C)CC1CCC/C1=N\O (stereo unspecified)
- TGI (K-562 leukemia): > 100 µM
- TGI (SF-539 CNS): > 100 µM
- TGI (SK-MEL-28 melanoma): > 100 µM
- TGI (SF-295 CNS): > 100 µM
- TGI (HCT-116 colon): > 100 µM
- TGI (SF-268 CNS): > 100 µM
- TGI (A498 renal): > 100 µM
- TGI (ACHN renal): > 100 µM

SMILES: COC1C2C=CC(C2)[C@H]1[N+](=O)[O-] (stereo partly specified)
- TGI (K-562 leukemia): > 100 µM
- TGI (SF-539 CNS): > 100 µM
- TGI (SF-295 CNS): > 100 µM
- TGI (HCT-116 colon): > 100 µM
- TGI (SF-268 CNS): > 100 µM
- TGI (A498 renal): > 100 µM
- TGI (ACHN renal): > 100 µM
- TGI (A549 NSCLC): > 100 µM

SMILES: C[C@]12CCCC(=O)C1(O)C[C@H](C(=O)O)CC2 (stereo partly specified)
- TGI (K-562 leukemia): > 100 µM
- TGI (SF-539 CNS): > 100 µM
- TGI (SK-MEL-28 melanoma): > 100 µM
- TGI (SF-295 CNS): > 100 µM
- TGI (HCT-116 colon): > 100 µM
- TGI (SF-268 CNS): > 100 µM
- TGI (A498 renal): > 100 µM
- TGI (ACHN renal): > 100 µM
- TGI (A549 NSCLC): > 100 µM

SMILES: Cc1cc(C)c(C(=O)c2no[n+]([O-])c2C(=O)c2c(C)cc(C)c(Br)c2C)c(C)c1Br
- TGI (SF-539 CNS): 29.1 µM
- TGI (SK-MEL-28 melanoma): 27.5 µM
- TGI (SF-295 CNS): 33.3 µM
- TGI (HCT-116 colon): 21.9 µM
- TGI (SF-268 CNS): 29.8 µM
- TGI (A498 renal): 32.6 µM
- TGI (ACHN renal): 34.9 µM
- TGI (A549 NSCLC): 39.1 µM

SMILES: CCOP(=O)(OCC)OC(C#N)c1ccc(-c2ccccc2)cc1 (stereo unspecified)
- TGI (K-562 leukemia): 40 µM
- TGI (SF-539 CNS): 38.9 µM
- TGI (SK-MEL-28 melanoma): > 100 µM
- TGI (SF-295 CNS): > 100 µM
- TGI (HCT-116 colon): 28.5 µM
- TGI (SF-268 CNS): 44.4 µM
- TGI (A498 renal): 62.7 µM
- TGI (ACHN renal): > 100 µM
- TGI (A549 NSCLC): 34.9 µM

SMILES: O=C(N/N=C(/CCN1CCCC1)CC(c1ccccc1)c1c(O)c2ccccc2oc1=O)c1ccncc1 (stereo unspecified)
- TGI (K-562 leukemia): > 100 µM
- TGI (SF-539 CNS): > 100 µM
- TGI (SF-295 CNS): > 100 µM
- TGI (HCT-116 colon): > 100 µM
- TGI (SF-268 CNS): > 100 µM
- TGI (A498 renal): > 100 µM
- TGI (ACHN renal): > 100 µM
- TGI (A549 NSCLC): > 100 µM

SMILES: CC[C@]1(O)C(=O)OCc2c1cc1n(c2=O)Cc2cc3c(N)cccc3nc2-1
- TGI (K-562 leukemia): > 100 µM
- TGI (SF-539 CNS): > 100 µM
- TGI (SK-MEL-28 melanoma): > 100 µM
- TGI (SF-295 CNS): > 100 µM
- TGI (HCT-116 colon): > 100 µM
- TGI (SF-268 CNS): > 100 µM
- TGI (A498 renal): > 100 µM
- TGI (ACHN renal): > 100 µM
- TGI (A549 NSCLC): > 100 µM

SMILES: COC(=O)[C@]12CCC(C)[C@H](C)[C@H]1C1=CCC3[C@@]4(C)CC[C@H](OC(C)=O)C(C)(C)C4CC[C@@]3(C)C1(C)C(O)C2 (stereo partly specified)
- TGI (K-562 leukemia): > 100 µM
- TGI (SF-539 CNS): > 100 µM
- TGI (SK-MEL-28 melanoma): > 100 µM
- TGI (SF-295 CNS): > 100 µM
- TGI (HCT-116 colon): > 100 µM
- TGI (SF-268 CNS): > 100 µM
- TGI (A498 renal): > 100 µM
- TGI (ACHN renal): > 100 µM
- TGI (A549 NSCLC): > 100 µM

SMILES: CCCCN(CCCC)c1c([N+](=O)[O-])c(=O)nc2ccccn12
- TGI (K-562 leukemia): > 100 µM
- TGI (SF-539 CNS): > 100 µM
- TGI (SK-MEL-28 melanoma): 54 µM
- TGI (HCT-116 colon): > 100 µM
- TGI (SF-268 CNS): > 100 µM
- TGI (A498 renal): 48.2 µM
- TGI (ACHN renal): > 100 µM
- TGI (A549 NSCLC): > 100 µM

SMILES: CC(=O)NC(CCCCNC(=O)NCCCl)C(=O)NCc1ccccc1 (stereo unspecified)
- TGI (K-562 leukemia): > 100 µM
- TGI (SF-539 CNS): > 100 µM
- TGI (SK-MEL-28 melanoma): > 100 µM
- TGI (SF-295 CNS): > 100 µM
- TGI (HCT-116 colon): > 100 µM
- TGI (SF-268 CNS): > 100 µM
- TGI (ACHN renal): > 100 µM
- TGI (A549 NSCLC): > 100 µM

SMILES: COc1ccc(/C=C\c2cc(OC)c(O[Si](C)(C)C(C)(C)C)c(OC)c2)cc1
- TGI (K-562 leukemia): > 100 µM
- TGI (SF-539 CNS): > 100 µM
- TGI (SK-MEL-28 melanoma): 43.4 µM
- TGI (HCT-116 colon): > 100 µM
- TGI (SF-268 CNS): > 100 µM
- TGI (A498 renal): 81.1 µM
- TGI (ACHN renal): > 100 µM
- TGI (A549 NSCLC): > 100 µM

SMILES: O=C(c1ccncc1)n1nc(-c2ccccc2)c(N=Nc2ccccc2[N+](=O)[O-])c1-c1ccccc1
- TGI (K-562 leukemia): > 100 µM
- TGI (SF-539 CNS): > 100 µM
- TGI (SK-MEL-28 melanoma): > 100 µM
- TGI (SF-295 CNS): > 100 µM
- TGI (HCT-116 colon): > 100 µM
- TGI (SF-268 CNS): > 100 µM
- TGI (A498 renal): > 100 µM
- TGI (A549 NSCLC): > 100 µM

SMILES: Cc1ccccc1C1=C(C(=O)Nc2ccc(Cl)c(Cl)c2)NC(=S)NC1N (stereo unspecified)
- TGI (K-562 leukemia): > 100 µM
- TGI (SF-539 CNS): > 100 µM
- TGI (SK-MEL-28 melanoma): > 100 µM
- TGI (HCT-116 colon): > 100 µM
- TGI (SF-268 CNS): > 100 µM
- TGI (A498 renal): > 100 µM
- TGI (ACHN renal): > 100 µM
- TGI (A549 NSCLC): > 100 µM

SMILES: COC(=O)C(=O)C(C(=O)C(=O)Nc1cccc(C(C)=O)c1)c1nc2ccccc2[nH]c1=O (stereo unspecified)
- TGI (K-562 leukemia): > 100 µM
- TGI (SF-539 CNS): > 100 µM
- TGI (SK-MEL-28 melanoma): > 100 µM
- TGI (SF-295 CNS): > 100 µM
- TGI (SF-268 CNS): > 100 µM
- TGI (A498 renal): > 100 µM
- TGI (ACHN renal): > 100 µM
- TGI (A549 NSCLC): > 100 µM

SMILES: CCOC(=O)c1cc(/C=C/C(C)=C/C(=O)OC)oc1C
- TGI (K-562 leukemia): > 100 µM
- TGI (SF-539 CNS): > 100 µM
- TGI (SK-MEL-28 melanoma): > 100 µM
- TGI (SF-295 CNS): > 100 µM
- TGI (HCT-116 colon): > 100 µM
- TGI (SF-268 CNS): > 100 µM
- TGI (ACHN renal): > 100 µM
- TGI (A549 NSCLC): > 100 µM

SMILES: N#CCCN(CCC#N)c1ccc(C(Sc2ccccc2)C(NC(=O)c2cc([N+](=O)[O-])ccc2Cl)C(=O)Sc2ccccc2)cc1 (stereo unspecified)
- GI50 (K-562 leukemia): 1.71 µM
- TGI (K-562 leukemia): 7.42 µM and 6.69 µM
- TGI (SF-539 CNS): 4.11 µM and 3.79 µM
- GI50 (SK-MEL-28 melanoma): 3.24 µM
- TGI (SK-MEL-28 melanoma): 7.06 µM and 14.2 µM
- TGI (SF-295 CNS): 13.1 µM
- GI50 (HCT-116 colon): 1.85 µM
- TGI (HCT-116 colon): 5.51 µM and 5.62 µM
- GI50 (SF-268 CNS): 1.27 µM
- TGI (SF-268 CNS): 8.86 µM and 5.95 µM
- GI50 (ACHN renal): 2.81 µM
- TGI (ACHN renal): 16.3 µM
- GI50 (A549 NSCLC): 0.954 µM
- TGI (A549 NSCLC): 6.47 µM and 13.2 µM

SMILES: NC(=S)NNc1c([N+](=O)[O-])cnn(-c2ccccc2)c1=O
- TGI (K-562 leukemia): 15.9 µM
- TGI (SF-539 CNS): 34 µM
- TGI (SK-MEL-28 melanoma): 30.8 µM
- TGI (SF-295 CNS): 29.4 µM
- TGI (HCT-116 colon): 22.1 µM
- TGI (SF-268 CNS): 40.6 µM
- TGI (ACHN renal): 32.7 µM
- TGI (A549 NSCLC): 49.9 µM

SMILES: OC1(c2ccccc2)OC(C#Cc2ccccc2)(c2ccccc2)c2ccccc21 (stereo unspecified)
- TGI (K-562 leukemia): > 100 µM
- TGI (SF-539 CNS): 4.07 µM
- TGI (SF-295 CNS): 18 µM
- TGI (HCT-116 colon): 3.07 µM
- TGI (SF-268 CNS): 15.2 µM
- TGI (A498 renal): 10.1 µM
- TGI (A549 NSCLC): 14.8 µM

SMILES: CC1=C(C(=O)Nc2cccc(Cl)c2)C(c2ccccc2F)C(C(=O)Nc2cccc(Cl)c2)=C(C)N1
- TGI (K-562 leukemia): 24.6 µM
- TGI (SF-539 CNS): 30.4 µM
- TGI (SK-MEL-28 melanoma): 23 µM
- TGI (SF-295 CNS): 36.8 µM
- TGI (SF-268 CNS): 36.8 µM
- TGI (A498 renal): 38.6 µM
- TGI (ACHN renal): 46 µM
- TGI (A549 NSCLC): 40.6 µM
